Measured values as given in PMC3008316 (Antiviral research, 2009).
Where two headings read alike, the source gives them in different places.

Legend:
PTV, Adames strain [1] = tested on: PTV, Adames strain; set-up: species or system Syrian hamsters; details: hamster, in vivo
PTV, Adames strain [2] = tested on: PTV, Adames strain; set-up: species or system C57BL/6 mice; details: mouse, in vivo
PICV, strain An 4763 [3] = type: in vivo, Syrian hamsters
[4] = tested on: phleboviruses (RVFV, PTV, SFNV); assay: organism not typed; type: cell-based
[5] = tested on: RVFV vaccine strain MP-12
[6] = tested on: RVFV vaccine strain MP-12; remark: listed apart in the source
PTV, Adames strain [7] = tested on: PTV, Adames strain
PTV, Adames strain [8] = tested on: PTV, Adames strain; remark: listed apart in the source
[9] = tested on: Sandfly fever virus, Naples strain (SFNV)
[10] = tested on: Sandfly fever virus, Naples strain (SFNV); remark: listed apart in the source
[11] = tested on: Tacaribe virus (TCRV), strain TRVL 11573
[12] = tested on: Tacaribe virus (TCRV), strain TRVL 11573; remark: listed apart in the source
[13] = tested on: Junin virus (JUNV) vaccine strain Candid 1
[14] = tested on: Junin virus (JUNV) vaccine strain Candid 1; remark: listed apart in the source
PICV, strain An 4763 [15] = tested on: PICV, strain An 4763
PICV, strain An 4763 [16] = tested on: PICV, strain An 4763; remark: listed apart in the source
[17] = rats; ref Y. Furuta, unpublished data; cited from earlier work
in vitro [18] = details: monkey, CC50 ± SD
in vitro [19] = details: monkey, CC50 ± SD; remark: listed apart in the source
[20] = tested on: RVFV vaccine strain MP-12; assay: microbe, parasite or virus in culture; details: Rift Valley fever virus, Vero 76, read-out: EC50 ± SD (CPER)
[21] = tested on: RVFV vaccine strain MP-12; assay: microbe, parasite or virus in culture; details: Rift Valley fever virus, Vero 76, read-out: EC90 ± SD (VYR)
PTV, Adames strain [22] = assay: microbe, parasite or virus in culture; details: Punta Toro virus, Vero 76, read-out: EC50 ± SD (CPER)
PTV, Adames strain [23] = assay: microbe, parasite or virus in culture; details: Punta Toro virus, Vero 76, read-out: EC90 ± SD (VYR)
[24] = tested on: Sandfly fever virus, Naples strain (SFNV); assay: microbe, parasite or virus in culture; details: sandfly fever Sicilian virus, Vero 76, read-out: EC50 ± SD (CPER)
[25] = tested on: Sandfly fever virus, Naples strain (SFNV); assay: microbe, parasite or virus in culture; details: sandfly fever Sicilian virus, Vero 76, read-out: EC90 ± SD (VYR)
[26] = tested on: Tacaribe virus (TCRV), strain TRVL 11573; assay: microbe, parasite or virus in culture; details: Mammarenavirus tacaribeense, Vero 76, read-out: EC50 ± SD (CPER)
[27] = tested on: Tacaribe virus (TCRV), strain TRVL 11573; assay: microbe, parasite or virus in culture; details: Mammarenavirus tacaribeense, Vero 76, read-out: EC90 ± SD (VYR)
[28] = tested on: Junin virus (JUNV) vaccine strain Candid 1; assay: microbe, parasite or virus in culture; details: Mammarenavirus juninense, Vero, read-out: EC50 ± SD (CPER)
[29] = tested on: Junin virus (JUNV) vaccine strain Candid 1; assay: microbe, parasite or virus in culture; details: Mammarenavirus juninense, Vero, read-out: EC90 ± SD (VYR)
PICV, strain An 4763 [30] = assay: microbe, parasite or virus in culture; details: Pichinde virus, Vero, read-out: EC50 ± SD (CPER)
PICV, strain An 4763 [31] = assay: microbe, parasite or virus in culture; details: Pichinde virus, Vero, read-out: EC90 ± SD (VYR)
[32] = hamster, in vivo, po, 25 mg/kg/day
[33] = hamster, in vivo, po, 50 mg/kg/day
[34] = hamster, in vivo, po, 100 mg/kg/day

## NC(=O)c1nccn([C@@H]2O[C@H](CO)[C@@H](O)[C@H]2O)c1=O [T-1106, 3,4-dihydro-3-oxo-4-β-D-ribofuranosyl-2-pyrazinecarboxamide]
PTV, Adames strain [1]
  ED50 (survival): 12 µmol/kg/day
  Mean virus titer ± SD, liver: < 4.3 ± 2.1 (40)
  Potency relative to T-705 based on ED50: 9.4 times
  Survival compared to placebo: Significant protection
PTV, Adames strain [1]; po, 25 mg/kg/day
  ALT ± SD: 251 ± 438 international units per liter
  Mean virus titer ± SD, liver: < 4.6 ± 1.7 (80)
  Mean virus titer ± SD, serum: < 4.8 ± 2.9 (60)
  Percentage of animals with detectable virus, liver: < 4.6 ± 1.7 (80) %
  Percentage of animals with detectable virus, serum: < 4.8 ± 2.9 (60) %
PTV, Adames strain [1]; po, 50 mg/kg/day
  ALT ± SD: 802 ± 1149 international units per liter
  Mean virus titer ± SD, liver: < 4.9 ± 1.5 (80)
  Mean virus titer ± SD, serum: < 3.9 ± 2.2 (40)
  Percentage of animals with detectable virus, liver: < 4.9 ± 1.5 (80) %
  Percentage of animals with detectable virus, serum: < 3.9 ± 2.2 (40) %
PTV, Adames strain [1]; po, 100 mg/kg/day
  ALT ± SD: 446 ± 959 international units per liter
  Mean virus titer ± SD, serum: < 3.6 ± 2.6 (40)
  Percentage of animals with detectable virus, liver: < 4.3 ± 2.1 (40) %
  Percentage of animals with detectable virus, serum: < 3.6 ± 2.6 (40) %
PTV, Adames strain [2]
  ED50 (survival): 201 µmol/kg/day
PICV, strain An 4763 [3]; hamster, in vivo, 100 mg/kg/day
  Survival compared to placebo, log-rank analysis: failed to significantly protect
PICV, strain An 4763 [3]; hamster, in vivo, po
  ED50 (survival): 441 µmol/kg/day
PICV, strain An 4763 [3]; [32]
  ALT ± SD: 1354 ± 961 international units per liter
  Mean virus titer ± SD, liver: 7.7 ± 0.6 (100)
  Mean virus titer ± SD, serum: 6.5 ± 1.1 (100)
  Percentage of animals with detectable virus, liver: 7.7 ± 0.6 (100) %
  Percentage of animals with detectable virus, serum: 6.5 ± 1.1 (100) %
PICV, strain An 4763 [3]; [33]
  Mean virus titer ± SD, liver: 7.1 ± 1.5 (100)
  Mean virus titer ± SD, serum: < 5.4 ± 2.1 (80)
  Percentage of animals with detectable virus, liver: 7.1 ± 1.5 (100) %
  Percentage of animals with detectable virus, serum: < 5.4 ± 2.1 (80) %
PICV, strain An 4763 [3]; [34]
  ALT ± SD: 961 ± 1071 international units per liter
  Mean virus titer ± SD, liver: 7.4 ± 0.4 (100)
  Mean virus titer ± SD, serum: 6.5 ± 1.0 (100)
  Percentage of animals with detectable virus, liver: 7.4 ± 0.4 (100) %
  Percentage of animals with detectable virus, serum: 6.5 ± 1.0 (100) %
PICV, strain An 4763 [3]; n=10
  Survival outcome: 4 of the 10
PICV, strain An 4763 [3]; n=10, 25 mg/kg/day
  Animals protected (survival): 20%
PICV, strain An 4763 [3]; n=10, 50 mg/kg/day
  Animals protected (survival): 40%
[4]
  Greater sensitivity of RVFV to inhibitory activity: ~ 5 times
  Inhibitory concentrations, range: 76 to 743 µM
[4]; read-out: EC50 values, range (CPE reduction assay)
  EC50: 111 to 743 µM
[4]; read-out: EC90 values, range (VYR)
  EC90: 76 to 576 µM
[5]
  SI (CC50/EC50): >33
[6]
  SI (CC50/EC90): >25
PTV, Adames strain [7]
  SI (CC50/EC50): >5
PTV, Adames strain [8]
  SI (CC50/EC90): >6
[9]
  SI (CC50/EC50): >24
[10]
  SI (CC50/EC90): >49
[11]
  SI (CC50/EC50): >6
[12]
  SI (CC50/EC90): >13
[13]
  SI (CC50/EC50): >29
[14]
  SI (CC50/EC90): >33
PICV, strain An 4763 [15]
  SI (CC50/EC50): >24
PICV, strain An 4763 [16]
  SI (CC50/EC90): >21
[17]
  Liver tissue:plasma ratio relative to T-705: ~ 50 fold
In vitro [18]
  CC50: > 3720 µM
In vitro [19]
  CC50: > 3720 µM
[20]
  EC50: 111 ± 58 µM
[21]
  EC90: 146 ± 129 µM
PTV, Adames strain [22]
  EC50: 743 ± 297 µM
PTV, Adames strain [23]
  EC90: 576 ± 450 µM
[24]
  EC50: 152 ± 13 µM
[25]
  EC90: 76 ± 15 µM
[26]
  EC50: 619 ± 205 µM
[27]
  EC90: 296 ± 273 µM
[28]
  EC50: 128 ± 44 µM
[29]
  EC90: 114 ± 28 µM
PICV, strain An 4763 [30]
  EC50: 154 ± 39 µM
PICV, strain An 4763 [31]
  EC90: 173 ± 93 µM
